One assay has as its system MGC-803. Briefly: Antiproliferative activity against human MGC-803 cells by CCK8 assay. In kind it is functional, cell-based. In general terms: Tetrazolium assays rely on reduction of a dye to a coloured formazan, in cell work by metabolically active cells.
In another assay the test system is KYSE-30. The experiment in a line: Antiproliferative activity against human KYSE-30 cells by CCK8 assay. In kind it is functional, cell-based.
For another assay, the system named is MCF7. The experiment in a line: Antiproliferative activity against human MCF7 cells by CCK8 assay. It is filed as functional, cell-based.
The subject of the next assay is A549. The experiment in a line: Antiproliferative activity against human A549 cells by CCK8 assay. In kind it is functional, cell-based.
For assay [1], the target named is T1, NEDD8-activating enzyme E1 regulatory subunit (Homo sapiens, UniProt Q13564).
T1 sequence (Q13564 whole entry): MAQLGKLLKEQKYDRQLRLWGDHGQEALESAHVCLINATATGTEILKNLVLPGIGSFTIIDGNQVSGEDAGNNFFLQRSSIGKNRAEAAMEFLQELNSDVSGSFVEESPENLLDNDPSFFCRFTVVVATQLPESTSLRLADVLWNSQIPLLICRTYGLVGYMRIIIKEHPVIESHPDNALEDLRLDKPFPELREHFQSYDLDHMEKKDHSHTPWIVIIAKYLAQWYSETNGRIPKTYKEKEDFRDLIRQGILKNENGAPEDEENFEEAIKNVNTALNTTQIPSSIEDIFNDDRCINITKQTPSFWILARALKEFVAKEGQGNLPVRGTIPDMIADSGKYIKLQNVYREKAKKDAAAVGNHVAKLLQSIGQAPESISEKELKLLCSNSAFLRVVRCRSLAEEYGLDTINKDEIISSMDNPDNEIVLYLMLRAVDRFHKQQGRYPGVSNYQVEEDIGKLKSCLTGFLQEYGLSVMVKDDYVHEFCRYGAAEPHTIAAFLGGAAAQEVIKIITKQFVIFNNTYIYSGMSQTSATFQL
The experiment in a line: Inhibition of NAE (unknown origin).

The structures appear in SMILES notation. Where only a bound is given, the exact number is not on record here.

`O=C(Nc1nc2ccc(NC(=O)C3CCN(Cc4ccccc4)CC3)cc2s1)c1ccco1`: the IC50 (commonly the concentration at which inhibition is half-maximal) with MGC-803 came out at 5.09 µM; with KYSE-30, 7.41 µM; in the assay with MCF7 it was 7.46 µM; in the assay with A549, 4.25 µM.
Regarding `COc1ccccc1/C=C1\SC(=O)N(CCC(=O)Nc2ccc(S(N)(=O)=O)cc2)C1=O`, it took 12 µM to reach half-maximal inhibition in assay [1] (IC50).
On to `O=C(Nc1nc2ccc(NC(=O)C3CCN(Cc4ccccc4)CC3)cc2s1)c1ccc(-c2ccccc2)cc1`, for which the IC50 in the assay with MGC-803 was 7.84 µM; in the assay on KYSE-30, 2.88 µM; with MCF7, 10.7 µM; in the assay on A549, 8.13 µM.
The matching figures for `O=C(Nc1nc2ccc(NC(=O)C3CCN(Cc4ccccc4)CC3)cc2s1)c1cccnc1`: 25.6 µM, 19.6 µM, 23.9 µM and 20.4 µM.
The matching figures for `O=C(Nc1ccc2nc(NC(=O)C3COc4ccccc4O3)sc2c1)C1CCN(Cc2ccccc2)CC1` (stereo not given): 11 µM, 13.8 µM, 11.7 µM and 11.4 µM.
The matching figures for `N#Cc1ccc(C(=O)Nc2nc3ccc(NC(=O)C4CCN(Cc5ccccc5)CC4)cc3s2)cc1`: 4.74 µM, 1.41 µM, 13.1 µM and 3.31 µM.
As to `COc1cc(C(=O)Nc2nc3ccc(NC(=O)C4CCN(Cc5ccccc5)CC4)cc3s2)cc(OC)c1OC`, the IC50 in the assay on MGC-803 came out at 4.96 µM; with KYSE-30 it was 1.08 µM; with MCF7, 4.15 µM; in the assay on A549, 5.6 µM.
For `O=C(Nc1nc2ccc(NC(=O)C3CCN(Cc4ccccc4)CC3)cc2s1)c1ccccc1F` the same measures were 12.9 µM, 2.29 µM, 11.4 µM and 5.26 µM.
Regarding `CCOc1cccc(F)c1C#Cc1cn([C@H]2O[C@@H](CNS(N)(=O)=O)[C@H](O)[C@@H]2O)c2ncnc(N)c12`, the IC50 in assay [1] was determined as 0.004 µM.
Take `NS(=O)(=O)OC[C@@H]1C[C@@H](n2ccc3c(N[C@H]4CCc5ccccc54)ncnc32)C[C@@H]1O` [PEVONEDISTAT]: the IC50 in the assay with MGC-803 turned out to be 1.84 µM; in the assay with KYSE-30 it was 3.75 µM; in the assay on A549, 1.64 µM.
On to `O=C(Nc1nc2ccc(NC(=O)C3CCN(Cc4ccccc4)CC3)cc2s1)c1ccc2ccccc2c1`, for which the IC50 in the assay with MGC-803 stood at 8.76 µM; in the assay on KYSE-30, 3 µM; in the assay on MCF7, 11.9 µM; in the assay with A549, 7.25 µM.
In the case of `O=C(Nc1nc2ccc(NC(=O)C3CCN(Cc4ccccc4)CC3)cc2s1)c1ccc(C(F)(F)F)cc1`, the IC50 was 8.53 µM with MGC-803, 1.25 µM in the assay with KYSE-30, 4.58 µM with MCF7 and 6.29 µM in the assay on A549.
The matching figures for `O=C(Nc1nc2ccc(NC(=O)C3CCN(Cc4ccccc4)CC3)cc2s1)c1sccc1F`: 2.8 µM, 2.03 µM, 2.35 µM and 1.99 µM.
`O=C(Nc1nc2ccc(NC(=O)C3CCN(Cc4ccccc4)CC3)cc2s1)c1ccccc1`: the IC50 in the assay on MGC-803 was determined as 10.9 µM; with KYSE-30, 3.22 µM; in the assay with MCF7 it was 4.17 µM; with A549 it was 4.33 µM.
The matching figures for `O=C(Nc1nc2ccc(NC(=O)C3CCN(Cc4ccccc4)CC3)cc2s1)c1ccc2c(c1)OCO2`: 1.85 µM, 1.33 µM, 1.63 µM and 1.35 µM.
Consider `O=C(Nc1nc2ccc(NC(=O)C3CCN(Cc4ccccc4)CC3)cc2s1)c1cscn1`, for which the IC50 in the assay with MGC-803 turned out to be 1.69 µM; with KYSE-30, 0.73 µM; in the assay on MCF7 it was 0.98 µM; with A549, 1.19 µM.
For the compound `O=C(Nc1nc2ccc(NC(=O)C3CCN(Cc4ccccc4)CC3)cc2s1)c1ccc(Cl)o1`, the IC50 turned out to be 1.75 µM in the assay on MGC-803, 1.9 µM in the assay on KYSE-30, 1.88 µM with MCF7 and 2.82 µM with A549.
The matching figures for `C/C=C/C(=O)Nc1nc2ccc(NC(=O)C3CCN(Cc4ccccc4)CC3)cc2s1`: 15.7 µM, 17.7 µM, 11.9 µM and 12.8 µM.
Turning to `Nc1ccc(SCC(=O)Nc2ccc3nc(NC(=O)c4ccc(C(F)(F)F)cc4)sc3c2)cc1`, the IC50 in the assay with MGC-803 is 4.91 µM; in the assay with KYSE-30, 17.4 µM; in the assay on MCF7, > 100 µM; with A549 it was 41.2 µM.
With `O=C(Nc1nc2ccc(NC(=O)C3CCN(Cc4ccccc4)CC3)cc2s1)c1cccs1`, the IC50 in the assay with MGC-803 came to 2.77 µM; with KYSE-30, 1.64 µM; with MCF7 it was 3.24 µM; with A549, 1.7 µM.
The matching figures for `CCCC(=O)Nc1nc2ccc(NC(=O)C3CCN(Cc4ccccc4)CC3)cc2s1`: 30.1 µM, 22.7 µM, 37.5 µM and 29.1 µM.
The matching figures for `O=C(Nc1nc2ccc(NC(=O)C3CCN(Cc4ccccc4)CC3)cc2s1)c1ccc(F)c(F)c1`: 6.85 µM, 1.82 µM, 8.54 µM and 5.58 µM.
The matching figures for `CCCc1ccc(C(=O)Nc2nc3ccc(NC(=O)C4CCN(Cc5ccccc5)CC4)cc3s2)cc1`: 1.87 µM, 0.91 µM, 1.55 µM and 1.28 µM.
Take `O=C(Nc1nc2ccc(NC(=O)C3CCN(Cc4ccccc4)CC3)cc2s1)c1cccc(F)c1`: the IC50 in the assay on MGC-803 came to 13 µM; in the assay with KYSE-30 it was 1.71 µM; with MCF7, 7.32 µM; in the assay with A549, 4.94 µM.
Consider `O=C(Nc1nc2ccc(NC(=O)C3CCN(Cc4ccccc4)CC3)cc2s1)c1ccc(F)cc1`, for which the IC50 with MGC-803 turned out to be 12.7 µM; with KYSE-30 it was 1.08 µM; with MCF7 it was 5.74 µM; in the assay with A549, 4.51 µM.
The matching figures for `O=C(Nc1nc2ccc(NC(=O)C3CCN(Cc4ccccc4)CC3)cc2s1)c1sccc1Br`: 3.31 µM, 2.63 µM, 2.89 µM and 2.47 µM.
For `Cc1ccc(C(=O)Nc2nc3ccc(NC(=O)C4CCN(Cc5ccccc5)CC4)cc3s2)cc1` the same measures were 3.82 µM, 1.19 µM, 2.78 µM and 2.18 µM.
With `O=C(Nc1nc2ccc(NC(=O)C3CCN(Cc4ccccc4)CC3)cc2s1)c1ccc(F)cc1Cl`, the IC50 in the assay with MGC-803 was 10.7 µM; in the assay on KYSE-30, 2.08 µM; with MCF7, 15.9 µM; with A549 it was 3.77 µM.

Source of the values: ChEMBL document CHEMBL5625268, “Identification of novel benzothiazole derivatives as inhibitors of NEDDylation pathway to inhibit the progression of gastric cancer” (Bioorg Med Chem Lett, 2024).
